In publication PMC5865291, “A fast and sensitive activity assay for lytic polysaccharide monooxygenase” (Biotechnology for Biofuels, 2018):

Target: T1, NcLPMO9F (Neurospora crassa, UniProt Q1K4Q1)
T1 construct: gene gh61-6; recombinant secreted from Pichia pastoris X-33, column purified; 23,200 g/mol
T1 sequence (Q1K4Q1 18-231): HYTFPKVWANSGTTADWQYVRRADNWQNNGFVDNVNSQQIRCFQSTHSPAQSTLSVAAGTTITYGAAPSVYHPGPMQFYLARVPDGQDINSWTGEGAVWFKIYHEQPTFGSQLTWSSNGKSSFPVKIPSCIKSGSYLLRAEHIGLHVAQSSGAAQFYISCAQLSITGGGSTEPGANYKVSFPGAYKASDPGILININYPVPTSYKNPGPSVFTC
Assay: spectrophotometric peroxidase assay at […] nm (coerulignone formation)
Format: biochemical
Settings: H2O2 cosubstrate, standard conditions (30 °C); turnover only

With COc1cccc(OC)c1O [2,6-dimethoxyphenol] the specific activity was “The peroxidase activity was found for three different LPMOs from two different organisms”.
